Among the data in BindingDB's records for doi:10.1074/jbc.M406801200 (The Scripps Research Institute, 2004) are IC50 values, retold here.

Chain of Bifunctional purine biosynthesis protein ATIC (P31939 whole entry): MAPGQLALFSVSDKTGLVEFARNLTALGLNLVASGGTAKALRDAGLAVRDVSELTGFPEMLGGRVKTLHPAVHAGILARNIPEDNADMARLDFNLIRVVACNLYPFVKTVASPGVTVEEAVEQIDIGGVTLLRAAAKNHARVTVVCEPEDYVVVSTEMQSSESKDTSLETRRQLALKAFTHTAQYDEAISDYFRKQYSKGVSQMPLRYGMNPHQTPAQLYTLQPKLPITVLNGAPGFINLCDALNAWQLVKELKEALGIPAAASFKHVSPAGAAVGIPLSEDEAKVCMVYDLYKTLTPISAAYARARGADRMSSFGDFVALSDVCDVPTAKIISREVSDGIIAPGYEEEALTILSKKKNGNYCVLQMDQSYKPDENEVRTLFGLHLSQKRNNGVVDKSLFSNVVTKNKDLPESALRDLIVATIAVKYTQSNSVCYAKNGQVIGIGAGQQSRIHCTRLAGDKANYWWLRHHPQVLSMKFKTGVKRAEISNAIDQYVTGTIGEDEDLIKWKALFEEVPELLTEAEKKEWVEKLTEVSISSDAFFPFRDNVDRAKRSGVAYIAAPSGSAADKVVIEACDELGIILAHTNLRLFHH

The assay addresses Bifunctional purine biosynthesis protein ATIC (Homo sapiens, UniProt P31939). Briefly: AICAR Tfase Inhibition Assay. To be noted: pH 7.5; 22 °C. The protocol: The human ATIC enzyme was used for the inhibition assay. The assay buffer was flushed with nitrogen to minimize oxidization of cofactor 10-f-THF. The reaction was initiated by adding the substrate AICAR to reaction mixtures containing ATIC, test compounds, and different concentrations of cofactor. […] The THF was generated in the transfer reaction of the formyl group from cofactor to AICAR to produce 5-formyl-AICAR. IC50 values were measured from dose-response curves.
`Cc1cc(N=Nc2c(C)[nH]n(-c3ccc(S(=O)(=O)O)cc3)c2=O)ccc1S(=O)(=O)Nc1ccccc1`: the IC50 is 11.6 µM.
The same measure for `Cc1[nH]n(-c2ccc(S(=O)(=O)O)cc2)c(=O)c1N=Nc1cc(Cl)cc(S(=O)(=O)O)c1C(=O)O` [4-chloro-2-[(E)-2-[5-hydroxy-3-methyl-1-(4-sulfophenyl)-1H-pyrazol-4-yl]diazen-1-yl]-6-sulfobenzoic acid]: 41.6 µM; for `Cc1ccc(OS(=O)(=O)c2ccc(N=Nc3c(C)[nH]n(-c4ccc(Cl)cc4S(=O)(=O)O)c3=O)cc2)cc1` [5-chloro-2-{5-hydroxy-3-methyl-4-[(E)-2-[4-(4-methylphenoxysulfonyl)phenyl]diazen-1-yl]-1H-pyrazol-1-yl}benzene-1-sulfonic acid]: 3.3 µM; for `Cc1[nH]n(-c2cc(Cl)c(S(=O)(=O)O)cc2Cl)c(=O)c1N=Nc1ccc(S(=O)(=O)O)cc1` [yellow 2G]: 20.1 µM.
The same measure for `O=S(=O)(O)Oc1c(-c2sc3c(ccc4cccc(Cl)c43)c2OS(=O)(=O)O)[nH]c2ccc(Br)cc12` [{4-[5-bromo-3-(sulfooxy)-1H-indol-2-yl]-13-chloro-3-thiatricyclo[7.4.0.0^{2,6}]trideca-1(9),2(6),4,7,10,12-hexaen-5-yl}oxidanesulfonic acid]: 1.4 µM.

Broadly, the IC50 is the concentration at which inhibition is half-maximal.
